Experiments:
[1] = tested on: environment, ducks and fish; conditions: cited from earlier work
[2] = tested on: violet weeds; assay: calcium magnesium acetate grains or triclopyr liquid applied to violet weeds in lawn grasses; type: in vivo
Source text: (§1) These are not mandatory steps, it simply helps reduce fall off of the grains on the leaves. Alternatively, without the binder and size reduction, the grains could rest by simple placement on the leaves of the weed.

[3] = tested on: broadleaf weeds; conditions: granular substance applied to the leaves of the weeds
Source text: A novel unknown use of calcium magnesium acetate is as an effective eliminator of certain broadleaf weeds which invade lawn grasses. When applying the granular substance to the leaves of the weeds, it can produce desired results, very quickly, much faster then many previously known toxic compositions. This method can work in as little as two days.
as §1

[4] = tested on: common lawn grasses
[5] = tested on: testosterone in men; conditions: by-product of triclopyr; cited from earlier work

Compound	toxicity to the environment [1]	time in which the grains eliminate / control violet weeds ([2]; grains applied to leaves of violet weeds in lawn)	time in which the method works on broadleaf weeds [3]	effect on lawn grasses around or near the violet weeds ([4]; applied by the method (grains isolated on the target weed, limited amount))	effect on lawn grasses ([4]; extreme over applications of the granular product)	treatments needed to affect violet weeds ([2]; liquid form applied once a month to lawns with violet weeds)	effect on testosterone in men [5]
calcium magnesium acetate	non-toxic to the environment	two	two	little or no adverse affect	did affect common lawn grasses		
O=C(O)COc1nc(Cl)c(Cl)cc1Cl [triclopyr, reference compound]	slightly toxic to the environment, ducks and fish					several monthly treatments just to diminish part of the plant	
tricloropyridine							lower testosterone in men

From patent US20110232180A1, “Method of applying calcium magnesium acetate to affect growth of unwanted broadleaf weeds in lawn grasses” (priority 2010, published 2011)
